Assay results from publication PMC2907420 (Journal of pharmaceutical and biomedical analysis, 2010).

How the values were obtained:
[1] = molecular target: T1, glycated HSA (gHSA1) (Homo sapiens, UniProt P02768); conditions: gHSA1 column
[2] = molecular target: T2, glycated HSA (gHSA2) (Homo sapiens, UniProt P02768); conditions: gHSA2 column
[3] = molecular target: T3, glycated HSA (gHSA3) (Homo sapiens, UniProt P02768); conditions: gHSA3 column
[4] = molecular target: T4, glycated HSA (Homo sapiens, UniProt P02768); conditions: pH 7.4, 37°C; versus reported Ka of 1.1 × 10^4 M^−1 for normal HSA
[5] = test system: normal HSA; conditions: normal HSA columns, 37°C; cited from earlier work
[6] = depending on storage conditions; cited from earlier work
[7] = molecular target: T4, glycated HSA; conditions: 4°C, comparable glycation conditions; cited from earlier work
[8] = molecular target: T1, glycated HSA (gHSA1); experiment: biochemical
[9] = molecular target: T2, glycated HSA (gHSA2); experiment: biochemical
[10] = molecular target: T3, glycated HSA (gHSA3); experiment: biochemical
[11] = binding capacity normalized for protein content
[12] = moles of active binding sites, Eqn. 3

T3 sequence (P02768 25-609): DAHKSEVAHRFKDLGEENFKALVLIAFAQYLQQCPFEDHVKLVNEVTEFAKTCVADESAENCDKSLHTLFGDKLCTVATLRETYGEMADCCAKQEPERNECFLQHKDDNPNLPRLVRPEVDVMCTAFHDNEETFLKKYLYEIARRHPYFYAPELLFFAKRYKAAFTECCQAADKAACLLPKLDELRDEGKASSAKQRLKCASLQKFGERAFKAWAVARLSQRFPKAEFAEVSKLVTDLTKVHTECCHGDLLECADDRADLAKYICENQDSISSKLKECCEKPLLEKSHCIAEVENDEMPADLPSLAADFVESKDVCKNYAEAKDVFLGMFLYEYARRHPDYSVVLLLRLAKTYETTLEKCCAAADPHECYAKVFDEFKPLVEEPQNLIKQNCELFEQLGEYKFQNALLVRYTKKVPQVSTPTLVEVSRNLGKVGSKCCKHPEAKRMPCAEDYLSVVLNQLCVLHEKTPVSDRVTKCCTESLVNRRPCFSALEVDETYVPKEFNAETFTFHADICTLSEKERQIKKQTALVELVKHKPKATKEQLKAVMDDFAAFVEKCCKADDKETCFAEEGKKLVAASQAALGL
T2 sequence (P02768 25-609): as above
T1 sequence (P02768 25-609): as above
T4 sequence (P02768 25-609): as above

In the case of N[C@@H](Cc1c[nH]c2ccccc12)C(=O)O [L-Tryptophan, L-tryptophan], the “Specific Activity” value [1, 11] is reported as 0.36 (± 0.08) mol/mol HSA, the mL [1, 12] is reported as 5.0 (± 0.9) × 10^−9 mol and the “Specific Activity” value [2, 11] is reported as 0.30 (± 0.05) mol/mol HSA. The mL [2, 12] was 6.7 (± 1.8) × 10^−9 mol, the “Specific Activity” value [3, 11] was 0.31 (± 0.04) mol/mol HSA and the mL [3, 12] was 5.8 (± 0.6) × 10^−9 mol. The “increase in binding affinity (Ka) with glycated HSA versus normal HSA” value [4] was 4.7–5.8 fold, the association equilibrium constant [5] was 11000 M⁻¹ and the “time over which solutions decrease in stability” value [6] was 2 to 9 days. The “decrease in affinity, glycated HSA versus HSA” value [7] was ≤ 0.6 fold, the Kd [8] was 19.2 µM and the Kd [9] was 15.6 µM. It also gave a Kd [10] of 17.5 µM.
